Source: the CheMixHub ionic liquid set
± gives the uncertainty stated by the source.

Assay: xn = mol fraction of the nth substance listed
Details: 100 kPa

CCCCCCCC[n+]1ccccc1.[Br-] + NCC(=O)NCC(=O)O + O
electrical conductivity [S/m]
Details | 288.15 K | 293.15 K | 298.15 K | 303.15 K | 308.15 K
x2 = 0.0008948, x1 = 0.00597 | – | – | – | – | 2.18 ± 0.13
x2 = 0.0008948, x1 = 0.005972 | – | – | 1.72 ± 0.1 | 1.92 ± 0.12 | –
x2 = 0.0008948, x1 = 0.005974 | 1.34 ± 0.08 | 1.52 ± 0.091 | – | – | –
x2 = 0.000895, x1 = 0.005737 | – | – | – | – | 2.13 ± 0.13
x2 = 0.000895, x1 = 0.005739 | – | 1.48 ± 0.089 | 1.68 ± 0.1 | 1.88 ± 0.11 | –
x2 = 0.000895, x1 = 0.005741 | 1.31 ± 0.078 | – | – | – | –
x2 = 0.0008953, x1 = 0.005443 | – | – | 1.62 ± 0.098 | 1.82 ± 0.11 | 2.05 ± 0.12
x2 = 0.0008953, x1 = 0.005445 | 1.27 ± 0.076 | 1.44 ± 0.086 | – | – | –
x2 = 0.0008956, x1 = 0.005122 | – | – | 1.57 ± 0.094 | 1.76 ± 0.11 | 1.98 ± 0.12
x2 = 0.0008956, x1 = 0.005124 | 1.22 ± 0.073 | 1.39 ± 0.083 | – | – | –
x2 = 0.0008959, x1 = 0.004789 | – | 1.34 ± 0.08 | 1.51 ± 0.091 | 1.69 ± 0.1 | 1.88 ± 0.11
x2 = 0.0008959, x1 = 0.00479 | 1.18 ± 0.071 | – | – | – | –
x2 = 0.0008962, x1 = 0.004442 | 1.14 ± 0.068 | 1.29 ± 0.077 | 1.45 ± 0.087 | 1.62 ± 0.097 | 1.79 ± 0.11
x2 = 0.0008965, x1 = 0.004038 | – | – | – | – | 1.69 ± 0.1
x2 = 0.0008965, x1 = 0.004039 | 1.07 ± 0.064 | 1.21 ± 0.073 | 1.36 ± 0.082 | 1.52 ± 0.091 | –
x2 = 0.000897, x1 = 0.00359 | – | – | 1.26 ± 0.075 | 1.4 ± 0.084 | 1.55 ± 0.093
x2 = 0.000897, x1 = 0.003592 | 0.984 ± 0.059 | 1.12 ± 0.067 | – | – | –
x2 = 0.0008974, x1 = 0.003106 | 0.886 ± 0.053 | 1 ± 0.06 | 1.13 ± 0.068 | 1.26 ± 0.076 | 1.39 ± 0.084
x2 = 0.0008979, x1 = 0.002563 | 0.768 ± 0.046 | 0.87 ± 0.052 | 0.975 ± 0.059 | 1.09 ± 0.065 | 1.19 ± 0.071
x2 = 0.0008984, x1 = 0.002015 | 0.637 ± 0.038 | 0.721 ± 0.043 | 0.807 ± 0.049 | 0.898 ± 0.054 | 0.973 ± 0.059
x2 = 0.0008987, x1 = 0.001634 | 0.54 ± 0.032 | 0.61 ± 0.037 | 0.682 ± 0.041 | 0.758 ± 0.046 | 0.823 ± 0.05
x2 = 0.0008991, x1 = 0.001218 | 0.424 ± 0.025 | 0.477 ± 0.029 | 0.533 ± 0.032 | 0.592 ± 0.036 | 0.657 ± 0.04
x2 = 0.0008995, x1 = 0.0007371 | 0.298 ± 0.018 | 0.332 ± 0.02 | 0.369 ± 0.022 | 0.406 ± 0.025 | 0.467 ± 0.028
x2 = 0.001787, x1 = 0.006313 | – | – | – | – | 2.23 ± 0.13
x2 = 0.001787, x1 = 0.006315 | – | – | 1.76 ± 0.11 | 1.95 ± 0.12 | –
x2 = 0.001787, x1 = 0.006317 | 1.36 ± 0.082 | 1.53 ± 0.092 | – | – | –
x2 = 0.001788, x1 = 0.005888 | – | – | 1.69 ± 0.1 | 1.87 ± 0.11 | 2.13 ± 0.13
x2 = 0.001788, x1 = 0.00589 | 1.31 ± 0.078 | 1.47 ± 0.088 | – | – | –
x2 = 0.001789, x1 = 0.005263 | – | – | – | 1.76 ± 0.1 | 1.98 ± 0.12
x2 = 0.001789, x1 = 0.005265 | 1.23 ± 0.074 | 1.38 ± 0.083 | 1.57 ± 0.094 | – | –
x2 = 0.001789, x1 = 0.005589 | – | – | 1.63 ± 0.098 | 1.81 ± 0.11 | 2.05 ± 0.12
x2 = 0.001789, x1 = 0.005591 | 1.27 ± 0.076 | 1.43 ± 0.086 | – | – | –
x2 = 0.00179, x1 = 0.004922 | – | – | 1.51 ± 0.091 | 1.69 ± 0.1 | 1.88 ± 0.11
x2 = 0.00179, x1 = 0.004924 | 1.18 ± 0.071 | 1.33 ± 0.08 | – | – | –
x2 = 0.001791, x1 = 0.004115 | – | 1.2 ± 0.072 | 1.35 ± 0.081 | 1.51 ± 0.091 | 1.68 ± 0.1
x2 = 0.001791, x1 = 0.004116 | 1.06 ± 0.064 | – | – | – | –
x2 = 0.001791, x1 = 0.004536 | – | – | – | – | 1.78 ± 0.11
x2 = 0.001791, x1 = 0.004537 | 1.13 ± 0.068 | 1.27 ± 0.076 | 1.44 ± 0.087 | 1.61 ± 0.097 | –
x2 = 0.001792, x1 = 0.003673 | – | – | – | 1.4 ± 0.084 | 1.54 ± 0.093
x2 = 0.001792, x1 = 0.003675 | 0.984 ± 0.059 | 1.12 ± 0.067 | 1.26 ± 0.075 | – | –
x2 = 0.001793, x1 = 0.003161 | 0.886 ± 0.053 | 0.997 ± 0.06 | 1.12 ± 0.067 | 1.25 ± 0.075 | 1.38 ± 0.083
x2 = 0.001794, x1 = 0.002599 | 0.766 ± 0.046 | 0.862 ± 0.052 | 0.967 ± 0.058 | 1.08 ± 0.065 | 1.18 ± 0.071
x2 = 0.001795, x1 = 0.001992 | 0.62 ± 0.037 | 0.699 ± 0.042 | 0.783 ± 0.047 | 0.87 ± 0.052 | 0.87 ± 0.052
x2 = 0.001796, x1 = 0.001587 | 0.515 ± 0.031 | 0.581 ± 0.035 | 0.65 ± 0.039 | 0.724 ± 0.043 | 0.724 ± 0.043
x2 = 0.001797, x1 = 0.0007376 | 0.292 ± 0.018 | 0.326 ± 0.02 | 0.36 ± 0.022 | 0.389 ± 0.024 | 0.389 ± 0.024
x2 = 0.001797, x1 = 0.001185 | 0.405 ± 0.024 | 0.456 ± 0.028 | 0.51 ± 0.031 | 0.566 ± 0.034 | 0.566 ± 0.034
